In PMC11303640, “ALK5/VEGFR2 dual inhibitor TU2218 alone or in combination with immune checkpoint inhibitors enhances immune-mediated antitumor effects” (Cancer Immunology, Immunotherapy : CII, 2024) one finds IC50 data, which are given here for one compound.

SMILES strings stand for the structures.

The assay addresses T1, VEGFR2 (Homo sapiens, UniProt P35968).
T1 construct: gene KDR
The assay is described as follows: kinase enzyme assay (Reaction Biology), 10-point dose response, […] ATP. Format: biochemical.

T1 sequence (P35968 20-1356): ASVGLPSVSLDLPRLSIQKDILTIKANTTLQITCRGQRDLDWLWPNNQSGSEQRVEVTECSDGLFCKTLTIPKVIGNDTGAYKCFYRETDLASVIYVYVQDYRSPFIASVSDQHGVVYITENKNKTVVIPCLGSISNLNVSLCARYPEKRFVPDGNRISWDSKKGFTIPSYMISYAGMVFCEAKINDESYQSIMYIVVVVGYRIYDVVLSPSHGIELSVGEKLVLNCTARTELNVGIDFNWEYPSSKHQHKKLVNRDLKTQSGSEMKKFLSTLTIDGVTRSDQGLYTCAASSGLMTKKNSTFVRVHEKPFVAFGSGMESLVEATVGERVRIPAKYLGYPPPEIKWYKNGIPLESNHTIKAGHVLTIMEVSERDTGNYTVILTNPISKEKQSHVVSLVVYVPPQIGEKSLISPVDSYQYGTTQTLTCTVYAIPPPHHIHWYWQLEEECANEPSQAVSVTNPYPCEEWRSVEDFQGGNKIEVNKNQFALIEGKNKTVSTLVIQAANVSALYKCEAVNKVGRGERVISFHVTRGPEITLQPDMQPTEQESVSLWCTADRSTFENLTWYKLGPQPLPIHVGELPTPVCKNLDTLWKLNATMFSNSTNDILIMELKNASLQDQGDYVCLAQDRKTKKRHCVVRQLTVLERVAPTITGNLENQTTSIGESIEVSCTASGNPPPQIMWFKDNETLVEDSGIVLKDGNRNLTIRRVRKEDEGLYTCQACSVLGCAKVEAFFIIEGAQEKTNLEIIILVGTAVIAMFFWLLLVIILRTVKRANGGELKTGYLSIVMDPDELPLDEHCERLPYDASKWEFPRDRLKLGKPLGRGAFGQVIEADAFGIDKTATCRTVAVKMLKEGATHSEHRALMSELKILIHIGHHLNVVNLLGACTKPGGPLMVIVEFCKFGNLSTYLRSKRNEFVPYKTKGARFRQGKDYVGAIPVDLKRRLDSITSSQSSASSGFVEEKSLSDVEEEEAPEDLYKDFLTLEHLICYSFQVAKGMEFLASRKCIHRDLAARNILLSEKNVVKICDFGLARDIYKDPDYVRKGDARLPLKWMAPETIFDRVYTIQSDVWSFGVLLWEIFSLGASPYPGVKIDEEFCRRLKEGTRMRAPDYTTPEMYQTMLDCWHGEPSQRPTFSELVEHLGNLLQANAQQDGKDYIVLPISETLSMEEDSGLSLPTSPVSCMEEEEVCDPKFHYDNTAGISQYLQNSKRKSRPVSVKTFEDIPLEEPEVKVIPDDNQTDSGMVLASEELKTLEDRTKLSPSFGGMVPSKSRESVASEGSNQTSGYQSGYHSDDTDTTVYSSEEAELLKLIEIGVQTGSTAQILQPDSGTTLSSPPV

For `Cc1cccc(-c2nc3n(c2-c2ccc4ncnn4c2)CCN3)n1` [TU2218], the IC50 – broadly, the point on the concentration scale where inhibition reaches its midpoint – was determined as 4.9 nM.
